# How the values were obtained:
# [1] = test system: serum cholesterol; assay: Subacute study in cholesterol fed rats, PO: serum cholesterol; assay type: in vivo; details: PO once a day for seven days
# Method: (§1) Methods: […] Compound 13-1-cis and Compound 18 were administered PO once a day for seven days. Serum TSH is measured using an enzyme immunoassay (EIA) kit designed for rat TSH (Amersham Pharmacia Biotech, Arlington Heights, Ill.). Expression levels of liver genes (e.g., the LDL-receptor, apoB, cpt-1, spot14 and apoAI) and heart genes ([…]2, HCN2, Kv1.5, MHCα, MHCβ, Alpha1c) are quantified by Northern blot analysis or by RT-PCR. For Northern analyses, RNA is isolated from liver tissue by a guanidinium thiocyanate method, and total RNA is obtained using an RNeasy column (Quiagen). mRNA is separated on a 1% agarose gel and transferred to a nylon membrane. Oligonucleotides specific for the complementary gene sequences are used to make ^32P-labeled probes (Multiprime DNA labeling systems, Amersham Pharmacia Biotech). Following hybridization of the probes to the nylon membranes, radioactivity is assessed on a blue film (Eastman Kodak Co), and the resulting image quantified using the appropriate software. RT-PCR is performed using an iCycler instrument (Biorad) using appropriate primers by means of standard methodology [[…] et al. (2000) Life Sciences 66: 1683-94]. GPDH activity in liver and heart are measured as described in Example B. […] Alternatively, expression levels of the corresponding genes are determined by Northern blot analysis or RT-PCR as described above.
# [2] = molecular target: T1, human thyroid hormone receptors TRα1 (Homo sapiens, UniProt P10827); assay: Receptor binding to TRα1 (gel filtration and scintillation proximity assay, labeled T3); details: SPA data; read-out: Ki TRα
# T1 construct: made in house; host or cells: Sf9 insect cells (baculovirus)
# T1 sequence (P10827 1-410 isoform P10827-2): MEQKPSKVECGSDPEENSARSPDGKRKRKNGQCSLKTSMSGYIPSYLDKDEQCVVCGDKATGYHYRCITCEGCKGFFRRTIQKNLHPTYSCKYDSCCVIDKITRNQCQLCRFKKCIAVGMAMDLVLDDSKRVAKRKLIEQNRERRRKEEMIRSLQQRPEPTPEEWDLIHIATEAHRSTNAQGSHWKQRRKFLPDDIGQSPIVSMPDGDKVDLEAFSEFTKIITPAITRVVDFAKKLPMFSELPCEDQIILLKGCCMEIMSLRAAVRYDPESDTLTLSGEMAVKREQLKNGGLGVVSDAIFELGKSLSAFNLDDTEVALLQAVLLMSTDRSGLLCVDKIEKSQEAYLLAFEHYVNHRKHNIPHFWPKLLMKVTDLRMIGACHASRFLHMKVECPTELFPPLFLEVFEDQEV
# T1 sequence (P19793 1-462 partner): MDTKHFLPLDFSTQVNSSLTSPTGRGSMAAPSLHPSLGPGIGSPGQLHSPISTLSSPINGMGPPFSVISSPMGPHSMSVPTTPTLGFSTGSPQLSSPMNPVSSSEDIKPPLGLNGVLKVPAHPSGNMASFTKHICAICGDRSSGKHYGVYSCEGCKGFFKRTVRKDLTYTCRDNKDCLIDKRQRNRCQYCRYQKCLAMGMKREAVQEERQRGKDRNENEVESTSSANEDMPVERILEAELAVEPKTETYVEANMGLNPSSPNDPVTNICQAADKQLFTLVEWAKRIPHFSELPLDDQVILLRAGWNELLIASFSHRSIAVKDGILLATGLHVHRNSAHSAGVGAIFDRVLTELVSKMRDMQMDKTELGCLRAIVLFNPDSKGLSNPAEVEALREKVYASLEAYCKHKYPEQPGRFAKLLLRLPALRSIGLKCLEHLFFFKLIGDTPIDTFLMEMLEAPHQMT
# [3] = molecular target: T2, human thyroid hormone receptors TRβ1 (Homo sapiens, UniProt P10828); assay: Receptor binding to TRβ1 (gel filtration and scintillation proximity assay, labeled T3); details: SPA data; read-out: Ki TRβ
# T2 construct: made in house; host or cells: Sf9 insect cells (baculovirus)
# T2 sequence (P10828 1-461): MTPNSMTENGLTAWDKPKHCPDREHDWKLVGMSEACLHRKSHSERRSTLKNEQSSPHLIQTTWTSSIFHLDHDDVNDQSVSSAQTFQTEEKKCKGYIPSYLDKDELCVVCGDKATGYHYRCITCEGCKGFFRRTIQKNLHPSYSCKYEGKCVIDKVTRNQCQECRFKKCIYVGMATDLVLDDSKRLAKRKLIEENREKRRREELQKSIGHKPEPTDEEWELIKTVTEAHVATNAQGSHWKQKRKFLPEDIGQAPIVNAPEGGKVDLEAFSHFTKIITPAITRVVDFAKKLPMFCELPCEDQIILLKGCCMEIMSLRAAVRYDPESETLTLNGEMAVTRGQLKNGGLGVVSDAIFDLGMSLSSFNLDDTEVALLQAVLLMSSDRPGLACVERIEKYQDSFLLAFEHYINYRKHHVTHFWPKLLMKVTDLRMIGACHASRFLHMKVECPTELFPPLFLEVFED
# T2 sequence (P19793 1-462 partner): T1 sequence (P19793 1-462 partner)
# [4] = test system: plasma cholesterol; assay: Cholesterol lowering in hypercholesterolemic rats; assay type: in vivo; details: hypercholesterolemic rats, 0.5 mg/kg/d orally
# [5] = test system: CYP3A (cytochrome P450-3A (CYP3A4)); assay: Prodrug activation in rat liver microsomes; assay type: in vitro ADME; details: liver microsomes from dexamethasone-treated rats; dexamethasone treated rat microsomes, formation of Compound 7
# Description: (§2) The purpose of these studies was to determine the kinetics of activation of prodrugs of thyromimetics in microsomal preparations. Microsomes contain the P450 enzyme that is required for the activation of many of the prodrugs prepared. The Km, Vmax, and intrinsic clearance values determined are measures of prodrug affinity for the microsomal enzymes, the rate at which the prodrug is activated, and the catalytic efficiency with which the prodrug is activated, respectively.
# (§3) Methods: Activation of prodrugs by dexamethasone treated rat hepatocyte microsomes. Microsomes were isolated by standard differential centrifugation methods from dexamethasone-treated rats. The treatment is to increase cytochrome P450-3A (CYP3A4) activity. Induction of CYP3A4 was confirmed by an increase in testosterone hydroxylation.
# (§4) Various concentrations of HepDirect™ Compound 7 were incubated with rat hepatocytes microsomes. Compound 7 formation was analyzed by HPLC using UV-Vis detection. Kinetic parameters (Vmax and Km) were calculated from the transformed data and the intrinsic clearance calculated from the kinetic parameters.
# [6] = Prodrug activation in rat liver microsomes; assay type: in vitro ADME
# Description: as §2, §3, §4
# [7] = Subacute study in cholesterol fed rats, PO: heart weight; assay type: in vivo; details: PO seven days, any dose tested
# Method: as §1
# [8] = ZDF, rat, in vivo, po, 28 days
# Method: Compound 18 was administered at doses up to 5 mg/kg/d. Compound cis-13-1 was administered at doses up to 50 mg/kg/d. We reasoned that the ZDF rat, as a metabolically challenged animal model, would be more sensitive to the potential adverse cardiac effects of thyromimetics than a normal, cholesterol-fed rat. At sacrifice, heart rate, and the first derivative of left ventricular pressure (LV dP/dt) were measured with a Millar catheter inserted into the left ventricle.
# [9] = cholesterol-fed rat; cited from earlier work
# [10] = Cardiovascular activity in the Sprague Dawley rat (HR, LV dP/dt, aortic pressure, heart weight); assay type: in vivo; details: SD rats, 1 mg/kg p.o., 7 days
# Description: Method: […] The control group (n=6) was given vehicle only. […] On the 7th day after the start of dosing, animals were anesthetized with Isofluorane and the left ventricle cannulated with a high fidelity catheter tip transducer via the right carotid artery. Left ventricular pressure, its first derivative (LVdP/dt), lead I ECG, and heart rate (HR) triggered off the ECG waveform, were digitally recorded. LV dP/dt is a well accepted measure of ionotropic state. Systolic and diastolic aortic pressures were measured by retracting the catheter into the proximal aorta.
# [11] = test system: thyroid stimulating hormone (TSH); assay: Circulating TSH in rats (cholesterol-fed, ZDF); assay type: in vivo
# Method: Methods: mGPDH activity was analyzed in isolated mitochondria using 2-(4-iodophenyl)-3-(4-nitrophenyl)-5-phenyl tetrazolium chloride as the terminal electron acceptor (Gardner R S, Analytical Biochemistry 59:272 (1974)). Commercially available GPDH was used in each assay as a standard (Sigma, St. Louis, Mo.). Changes in levels of mRNA for liver and heart genes are analyzed using reverse transcriptase followed by real-time PCR analysis. The analysis is performed using an iCycler instrument (Biorad) and appropriate primers by means of standard methodology [e.g., Schwab D A et al. (2000) Life Sciences 66: 1683-94]. The amounts of mRNA are normalized to an internal control, typically, cyclophilin. Serum TSH is measured using an enzyme immunoassay (EIA) kit designed for rat TSH (Amersham Pharmacia Biotech, Arlington Heights, Ill.).
# Another concern with synthetic thyromimetics is the suppression of the endogenous thyroid axis. Thyroid homeostasis is maintained by the action of thyroid releasing hormone (TRH) and thyroid stimulating hormone (TSH). […] Although this particular side effect has been noted, it has typically been treated with less concern than the cardiac safety issues. […] Therefore previous investigators have measured TSH levels when testing synthetic thyromimetics and have used a 30% decrease of TSH as the denominator in their therapeutic index calculations. […] Therefore, both compounds suppress TSH as doses lower than that required to decrease circulating cholesterol. […] However, 0.2 mg/kg/d of Compound 18 in 28 day treated ZDF rats, decreased TSH levels greater than 90%.
structure (smiles),measurement,setting,value
"Cc1cc(OC[P@@]2(=O)OCC[C@@H](c3cccc(Cl)c3)O2)cc(C)c1Cc1ccc(O)c(C(C)C)c1 [Compound 13-1-cis, Cis(S)-2-[(3,5-Dimethyl-4-(4′-hydroxy-3′-iso-propylbenzyl)phenoxy)methyl]-4-(3-Chlorophenyl)-2-oxo-2λ^5-[1,3,2]-dioxaphosphinane]",doses that significantly decreased serum cholesterol,[1],0.6 to 50 mg/kg/day
same,Ki,[2],2580 nM
same,Ki,[3],1980 nM
same,cholesterol lowering,[4],demonstrated a significant lowering of cholesterol
same,Km,[5],31 µM
same,Vmax,"[6]; dexamethasone treated rat microsomes, formation of Compound 7",1746 pmol/min/mg
same,microsomal CLint,"[6]; rat, liver microsomes from dexamethasone-treated rats, intrinsic clearance calculated from the kinetic parameters",56 µL/min/mg
same,cardiac hypertrophy,[7],No significant undesirable cardiac hypertrophy was observed
"CC(C)c1cc(Oc2c(Cl)cc(CC(=O)O)cc2Cl)ccc1O [Compound 18, 3,5-dichloro-4-[4′-hydroxy-3′-iso-propylphenoxy]benzeneacetic acid, reference compound]",doses that significantly decreased serum cholesterol,[1],1 mg/kg/day
same,TI for LV dP/dt (increase of 25%),[8],0.15
same,therapeutic index with respect to heart rate (ED15 HR/ED50 cholesterol),[8],0.4
same,therapeutic index (TI) with respect to heart rate increases (ED15 HR/ED50 cholesterol),[9],40
same,"HR, LV dP/dt, and systolic aortic pressure",[10],marked and statistically significant increases
same,Heart weight and heart weight normalized to body weight,[10],significantly increased
same,decrease of TSH levels,"[11]; ZDF rats, 0.2 mg/kg/d, 28 day",greater than 90%
same,therapeutic index of TSH levels (30% decrease of TSH),"[11]; cholesterol-fed rats, treated for 7 days",0.4
